Experimental findings from patent US20230271949A1, “GLP-1R MODULATING COMPOUNDS” (ASCLETIS BIOSCIENCE CO., LTD., priority 2022, published 2023) are described below.

Sequence of GLP-1R (P43220 24-463): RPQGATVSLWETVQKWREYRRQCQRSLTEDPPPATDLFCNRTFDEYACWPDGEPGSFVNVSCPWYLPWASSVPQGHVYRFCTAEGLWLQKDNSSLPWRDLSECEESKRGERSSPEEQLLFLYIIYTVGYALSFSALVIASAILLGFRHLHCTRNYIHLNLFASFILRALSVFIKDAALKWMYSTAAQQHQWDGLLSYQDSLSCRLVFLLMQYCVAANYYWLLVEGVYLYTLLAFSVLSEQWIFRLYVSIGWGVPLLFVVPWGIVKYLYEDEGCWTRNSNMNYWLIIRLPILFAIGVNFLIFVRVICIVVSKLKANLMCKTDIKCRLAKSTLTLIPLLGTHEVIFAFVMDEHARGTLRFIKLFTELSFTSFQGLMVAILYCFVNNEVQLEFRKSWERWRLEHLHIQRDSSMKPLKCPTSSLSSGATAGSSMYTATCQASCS

The experiment has as its target GLP-1R (Homo sapiens, UniProt P43220). In words: GLP-1R agonist cAMP stimulation assay (HTRF cAMP). Format: cell-based. To be noted: HEK293 cell line expressing GLP-1 target; HTRF cAMP agonist mode, 30 min at RT. The essentials:
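GLP-1R-expressing cells were stimulated with 10-point, 3-fold compound dilutions for 30 min at RT; HTRF cAMP detection reagents were then added for 60 min and the 665/615 ratio read. Ratios were converted to cAMP via a standard curve and % activity scaled between DMSO and top-concentration GLP-1(7-37) reference wells.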
Background: TR-FRET usually uses a lanthanide donor and a delayed reading to cut background.
`Cc1n[nH]c2c(Cl)cc(NC(=O)c3ccc4c(c3)nc(CN3CC=C(c5cccc(OCc6ccc(Cl)cc6F)n5)CC3)n4C[C@@H]3CCO3)cc12` [Compound 160] had an EC50 of 0.98 nM.

`O=C(Nc1ccc2c(c1)nc(C1CC13CCC(c1cccc(OCc4ccc(Cl)cc4F)n1)CC3)n2CC1CCO1)c1ccc2[nH]nc(C3CC3)c2c1` (stereo not shown) [Compound 252] came in with an EC50 of 1.03 nM.

Turning to `Cc1n[nH]c2c(C)cc(C(=O)Nc3ccc4nc(CN5CC=C(c6cccc(OCc7ccc(Cl)cc7F)n6)CC5)n(CC5CCO5)c4c3)cc12` (stereo not shown) [Compound 279], the EC50 is 0.95 nM.

The compound `Cc1n[nH]c2c(Cl)cc(C(=O)Nc3ccc4c(c3)nc(CN3CCC(c5cccc6c5OC(C)(c5ccc(Cl)cc5F)O6)CC3)n4CC3CCO3)cc12` (stereo not shown) [Compound 344] gave an EC50 of 1.02 nM. The EC50 values of the last two compounds are within 1.5-fold of each other.

With `Cc1cc(NC(=O)c2ccc3c(c2)nc(CN2CCC(c4cccc(OCc5ccc(Cl)cc5F)n4)CC2)n3C[C@@H]2CCO2)cc2nn[nH]c12` [Compound 194], the concentration giving a half-maximal response (EC50) turned out to be 0.33 nM.

Regarding `COCCn1c(CN2CCC(c3cccc(OCc4ccc(Cl)cc4F)n3)CC2)nc2cc(C(=O)NCc3ccc(O)c(OC)c3)ccc21` [Compound 28], the EC50 was determined as 75.7 nM.

In turn, `Cc1n[nH]c2ccc(NC(=O)c3ccc4c(c3)nc(CN3CC=C(c5cccc(OCc6ccc(C#N)cc6F)n5)CC3)n4C[C@@H]3CCO3)cc12` [Compound 187] displayed a concentration giving a half-maximal response (EC50) of 0.2 nM.

`N#Cc1ccc(COc2cccc(C3CCN(Cc4nc5cc(C(=O)Nc6cc(F)c7c(c6)C6(CC6)C(=O)N7)ccc5n4C[C@@H]4CCO4)CC3)n2)c(F)c1` [Compound 125] gave an EC50 of 0.55 nM. Compared with the last compound, the EC50 is about 2.8-fold higher.

In turn, `CC1(c2ccc(Cl)cc2F)Oc2cccc(C3=CCN(Cc4nc5cc(C(=O)Nc6ccc7[nH]nc(C8CC8)c7c6)ccc5n4CC4CCO4)CC3)c2O1` (stereo not shown) [Compound 294] yielded an EC50 of 1.02 nM.

The compound `Cc1n[nH]c2c(F)cc(C(=O)Nc3ccc4c(c3)nc(Cc3c(F)cc(-c5cccc6c5OC(C)(c5ccc(C#N)cc5F)O6)cc3F)n4CC3CCO3)cc12` (stereo not shown) [Compound 316] gave an EC50 of 0.54 nM.

`COCCn1c(CN2CCC(c3cccc(OCc4ccc(Cl)cc4F)n3)CC2)nc2cc(NC(=O)c3cc(C)c4[nH]nc(C)c4c3)ccc21` [Compound 260] displayed an EC50 of 1.03 nM.

As for `COCCn1c(Cc2ccc(-c3cccc(OCc4ccc(C#N)cc4F)n3)cc2)nc2cc(C(=O)NCCc3ccc(N)cc3)ccc21` [Compound 9], a half-maximal response (EC50) required 2980 nM.

In turn, `Cc1n[nH]c2c(C)cc(C(=O)Nc3ccc4nc(CN5CC=C(c6cccc(OCc7ccc(C#N)cc7F)n6)CC5)n(CC5CCO5)c4c3)cc12` (stereo not shown) [Compound 291] came in with an EC50 of 0.75 nM.

`O=C(NCc1ccc(O)cc1)c1ccc2c(c1)nc(CN1CCC(c3cccc(OCc4ccc(Cl)cc4F)n3)CC1)n2C[C@@H]1CCO1` [Compound 24] yielded an EC50 of 90.1 nM.

`COCCn1c(CN2CCC(c3cccc(OCc4ccc(Cl)cc4F)n3)CC2)nc2cc(C(=O)NCCc3cccc(O)c3)ccc21` [Compound 19] yielded an EC50 of 176 nM.

As to `Cc1n[nH]c2ccc(C(=O)Nc3ccc4c(c3)nc(CN3CCC(c5cccc(OCc6ccc(Cl)cc6F)n5)CC3)n4CCOC(F)(F)F)cc12` [Compound 261], the EC50 came to 0.81 nM. This EC50 lies about 220-fold lower than the previous one.

`Cc1n[nH]c2ccc(C(=O)Nc3ccc4c(c3)nc(CN3CC=C(c5cccc(OCc6ccc(Cl)cn6)n5)CC3)n4C[C@@H]3CCO3)cc12` [Compound 198] yielded an EC50 of 0.35 nM.

`Cc1cc2c(C#N)ccc(COc3cccc(C4CCN(Cc5nc6cc(NC(=O)c7ccc8[nH]nc(C(F)(F)F)c8c7)ccc6n5C[C@@H]5CCO5)CC4)n3)c2o1` [Compound 371]: a half-maximal response (EC50) required 3.19 nM.

`CCc1n[nH]c2ccc(C(=O)Nc3ccc4c(c3)nc(CN3CC=C(c5cccc(OCc6ccc(C#N)cc6F)n5)CC3)n4C[C@@H]3CCO3)cc12` [Compound 231] registered an EC50 of 0.87 nM.

As for `Cc1cc(C(=O)Nc2ccc3c(c2)nc(CN2CC=C(c4cccc5c4OC(C)(c4ccc(Cl)cc4F)O5)CC2)n3C[C@@H]2CCO2)cc2[nH]c(=O)[nH]c12` (stereo partly shown) [Compound 309], the EC50 came out at 0.87 nM.

`Cc1c[nH]c2c(C)cc(C(=O)Nc3ccc4c(c3)nc(CN3CC=C(c5cccc(OCc6ccc(Cl)cc6F)n5)CC3)n4C[C@@H]3CCO3)cc12` [Compound 390] came in with an EC50 of 5.21 nM. This EC50 lies about 6-fold higher than the previous one.

As to `Cc1n[nH]c2c(C3CC3)cc(NC(=O)c3ccc4c(c3)nc(CN3CCC(c5cccc(OCc6ccc(Cl)cc6F)n5)CC3)n4C[C@@H]3CCO3)cc12` [Compound 118], the EC50 turned out to be 8.31 nM.

For the compound `O=C(Nc1ccc2c(c1)nc(CN1CC=C(c3cccc(OCc4ccc(Cl)cc4F)n3)CC1)n2C[C@@H]1CCO1)c1cc(C(F)(F)F)c2[nH]ncc2c1` [Compound 212], the response was half-maximal at 2.96 nM (EC50). Against the preceding compound, the EC50 is about 2.8-fold lower.

In the case of `O=C(Nc1ccc2c(c1)nc(CN1CC=C(c3cccc(OCc4ccc(Cl)cc4F)n3)CC1)n2C[C@@H]1CCO1)c1cc(F)c2[nH]ncc2c1` [Compound 205], the EC50 worked out at 0.98 nM.

Consider `O=C(NCC(=O)N1C2CCC(C2)[C@H]1C(=O)O)c1ccc2c(c1)nc(CN1CCC(c3cccc(OCc4ccc(Cl)cc4F)n3)CC1)n2C[C@@H]1CCO1` (stereo partly shown) [Compound 59], for which the response was half-maximal at 7.2 nM (EC50). Against the preceding compound, the EC50 is about 7.3-fold higher.

In turn, `O=C(Nc1cc(C(F)(F)F)c2[nH]ncc2c1)c1ccc2c(c1)nc(CN1CC=C(c3cccc(OCc4ccc(Cl)cc4F)n3)CC1)n2C[C@@H]1CCO1` [Compound 158] registered an EC50 of 1.03 nM.

Compound `Cc1cc(NC(=O)c2ccc3c(c2)nc(CN2CC=C(c4cccc(OCc5ccc(C#N)cc5F)n4)CC2)n3C[C@@H]2CCO2)cc2cn[nH]c12` [Compound 188] returned an EC50 of 1.19 nM.

The compound `Cc1cc(NC(=O)c2ccc3nc(CN4CC=C(c5cccc(OCc6ccc(Cl)cc6F)n5)CC4)n(CC4CCO4)c3c2)cc2c(F)n[nH]c12` (stereo not shown) [Compound 265] had an EC50 of 45.9 nM.

`Cc1cc(NC(=O)c2ccc3c(c2)nc(CN2CC=C(c4cccc(OCc5ccc(Cl)cc5F)n4)CC2)n3C[C@@H]2CCO2)cc2c1NC(=O)C21CC1` [Compound 155] gave an EC50 of 0.55 nM.

In the case of `COCCn1c(CN2CCC(c3cccc(OCc4ccc(Cl)cc4F)n3)CC2)nc2cc(C(=O)NCc3ccc(O)c(F)c3)ccc21` [Compound 31], the EC50 amounted to 37.2 nM. This EC50 lies about 68-fold higher than the previous one.

In the case of `C=C(C)c1n[nH]c2ccc(C(=O)Nc3ccc4c(c3)nc(CN3CC=C(c5cccc6c5OC(C)(c5ccc(Cl)cc5F)O6)CC3)n4CC3CCO3)cc12` (stereo not shown) [Compound 315], the EC50 amounted to 1.03 nM.

`O=C(Nc1cc(F)c2c(c1)C1(CC1)C(=O)N2)c1ccc2nc(CN3CC=C(c4cccc(OCc5ccc(Cl)cc5F)n4)CC3)n(C[C@@H]3CCO3)c2c1` [Compound 271] gave an EC50 of 0.97 nM.

Take `CC(C)c1n[nH]c2ccc(C(=O)Nc3ccc4c(c3)nc(CN3CC=C(c5cccc6c5OC(C)(c5ccc(C#N)cc5F)O6)CC3)n4CC3CCO3)cc12` (stereo not shown) [Compound 311]: the EC50 turned out to be 0.39 nM.

Regarding `Cc1n[nH]c2ccc(C(=O)Nc3ccc4c(c3)nc(CN3CC=C(c5cccc(OCc6ccc(C#N)cc6F)n5)CC3)n4C[C@@H]3CCO3)cc12` [Compound 235], it took 0.42 nM to reach a half-maximal effect (EC50).

With `Cc1n[nH]c2c(C(F)(F)F)cc(NC(=O)c3ccc4c(c3)nc(CN3CC=C(c5cccc6c5OC(C)(c5ccc(Cl)cc5F)O6)CC3)n4CC3CCO3)cc12` (stereo not shown) [Compound 295], the EC50 is 2.19 nM.

`CCc1n[nH]c2ccc(C(=O)Nc3ccc4c(c3)nc(CN3CCC(c5cccc6c5OC(C)(c5ccc(C#N)cc5F)O6)CC3)n4CC3CCO3)cc12` (stereo not shown) [Compound 346] had an EC50 of 0.76 nM.

The compound `CC1(c2ccc(Cl)cc2F)Oc2cccc(C3=CCN(Cc4nc5cc(C(=O)Nc6ccc7[nH]nc(F)c7c6)ccc5n4CC4CCO4)CC3)c2O1` (stereo not shown) [Compound 292] yielded an EC50 of 8.73 nM.

The term EC50 denotes the concentration needed to bring the measured effect to its halfway point. High values mean a need for much substance, low ones an effect from little substance.
